# Measurements from US8772293B2, “Chemical compounds” (Pfizer Limited, priority 2010, dated 2014).
# Where a name gives a salt, the structure may show the parent alone.
# Target: T1, Nav1.7 (or SCN9A) channel (Homo sapiens, UniProt Q15858)
# T1 construct: expressed in transfected cells
# Experiment: Nav1.7 (hSCN9A) PatchXpress electrophysiology in HEK cells
# Assay type: cell-based
# Details: PatchXpress platform; HEK cells stably expressing hSCN9A; held at V1/2 of inactivation; calculated from single point % inhibition; read-out: Nav1.7 EIC50 (estimated IC-50)
# Protocol: The ability of the compounds of formula (I) to block the Nav1.7 (or SCN9A) channel were measured using the assay described below.
# Human Embryonic Kidney (HEK) cells were transfected with an hSCN9A construct using lipofectamine reagent (Invitrogen), using standard techniques. Cells stably expressing the hSCN9A constructs were identified by their resistance to G-418 (400 μg/ml). Clones were screened for expression using the whole-cell voltage-clamp technique.
# HEK cells stably transfected with hSCN9A were maintained in DMEM medium supplemented with 10% heat-inactivated fetal bovine serum and 400 µg/ml G-418 in an incubator at 37° C. with a humidified atmosphere of 10% CO2. For HTS, cells were harvested from flasks by trypsinization and replated in an appropriate multi-well plate (typically 96 or 384 wells/plate) such that confluence would be achieved within 24 hours of plating. For electrophysiological studies, cells were removed from the culture flask by brief trypsinization and re-plated at low density onto glass cover slips. Cells were typically used for electrophysiological experiments within 24 to 72 hours after plating.
# Cover slips containing HEK cells expressing hSCN9A were placed in a bath on the stage of an inverted microscope and perfused (approximately 1 ml/minutes) with extracellular solution of the following composition: 138 mM NaCl, 2 mM CaCl2, 5.4 mM KCl, 1 mM MgCl2, 10 mM glucose, and 10 mM HEPES, pH 7.4, with NaOH. […] The osmolarity of the extracellular and intracellular solutions was 300 mOsm/kg and 295 mOsm/kg, respectively. All recordings were made at room temperature (22-24° C.) using AXOPATCH 200B amplifiers and PCLAMP software (Axon Instruments, Burlingame, Calif.).
# hSCN9A currents in HEK cells were measured using the whole-cell configuration of the patch-clamp technique (Hamill et al., 1981). Uncompensated series resistance was typically 2 to 5 mega ohms and >85% series resistance compensation was routinely achieved. As a result, voltage errors were negligible and no correction was applied. Current records were acquired at 20 to 50 KHz and filtered at 5 to 10 KHz.
# HEK cells stably transfected with hSCN9A were viewed under Hoffman contrast optics and placed in front of an array of flow pipes emitting either control or compound-containing extracellular solutions. All compounds were dissolved in dimethyl sulfoxide to make 10 mM stock solutions, which were then diluted into extracellular solution to attain the final concentrations desired. […] The voltage-dependence of inactivation was determined by applying a series of depolarizing prepulses (8 sec long in 10 mV increments) from a negative holding potential. The voltage was then immediately stepped to 0 mV to assess the magnitude of the sodium current. Currents elicited at 0 mV were plotted as a function of prepulse potential to allow estimation of the voltage at which 50% of the channels were inactivated (midpoint of inactivation or V1/2). Compounds were tested for their ability to inhibit hSCN9A sodium channels by activating the channel with a 20 msec voltage step to 0 mV following an 8 second conditioning prepulse to the empirically determined V1/2. Compound effect (% inhibition) was determined by difference in current amplitude before and after application of test compounds. For ease of comparison, “estimated IC-50” (EIC50) values were calculated from single point electrophysiology data by the following equation, (tested concentration, uM)×(100-% inhibition/% inhibition). Inhibition values <20% and >80% were excluded from the calculation.
# Electrophysiological assays were conducted with PatchXpress 7000 hardware and associated software (Molecular Devices Corp). All assay buffers and solutions were identical to those used in conventional whole-cell voltage clamp experiments described above. hSCN9A cells were grown as above to 50%-80% confluency and harvested by trypsinization. […]
# T1 sequence (Q15858 whole entry): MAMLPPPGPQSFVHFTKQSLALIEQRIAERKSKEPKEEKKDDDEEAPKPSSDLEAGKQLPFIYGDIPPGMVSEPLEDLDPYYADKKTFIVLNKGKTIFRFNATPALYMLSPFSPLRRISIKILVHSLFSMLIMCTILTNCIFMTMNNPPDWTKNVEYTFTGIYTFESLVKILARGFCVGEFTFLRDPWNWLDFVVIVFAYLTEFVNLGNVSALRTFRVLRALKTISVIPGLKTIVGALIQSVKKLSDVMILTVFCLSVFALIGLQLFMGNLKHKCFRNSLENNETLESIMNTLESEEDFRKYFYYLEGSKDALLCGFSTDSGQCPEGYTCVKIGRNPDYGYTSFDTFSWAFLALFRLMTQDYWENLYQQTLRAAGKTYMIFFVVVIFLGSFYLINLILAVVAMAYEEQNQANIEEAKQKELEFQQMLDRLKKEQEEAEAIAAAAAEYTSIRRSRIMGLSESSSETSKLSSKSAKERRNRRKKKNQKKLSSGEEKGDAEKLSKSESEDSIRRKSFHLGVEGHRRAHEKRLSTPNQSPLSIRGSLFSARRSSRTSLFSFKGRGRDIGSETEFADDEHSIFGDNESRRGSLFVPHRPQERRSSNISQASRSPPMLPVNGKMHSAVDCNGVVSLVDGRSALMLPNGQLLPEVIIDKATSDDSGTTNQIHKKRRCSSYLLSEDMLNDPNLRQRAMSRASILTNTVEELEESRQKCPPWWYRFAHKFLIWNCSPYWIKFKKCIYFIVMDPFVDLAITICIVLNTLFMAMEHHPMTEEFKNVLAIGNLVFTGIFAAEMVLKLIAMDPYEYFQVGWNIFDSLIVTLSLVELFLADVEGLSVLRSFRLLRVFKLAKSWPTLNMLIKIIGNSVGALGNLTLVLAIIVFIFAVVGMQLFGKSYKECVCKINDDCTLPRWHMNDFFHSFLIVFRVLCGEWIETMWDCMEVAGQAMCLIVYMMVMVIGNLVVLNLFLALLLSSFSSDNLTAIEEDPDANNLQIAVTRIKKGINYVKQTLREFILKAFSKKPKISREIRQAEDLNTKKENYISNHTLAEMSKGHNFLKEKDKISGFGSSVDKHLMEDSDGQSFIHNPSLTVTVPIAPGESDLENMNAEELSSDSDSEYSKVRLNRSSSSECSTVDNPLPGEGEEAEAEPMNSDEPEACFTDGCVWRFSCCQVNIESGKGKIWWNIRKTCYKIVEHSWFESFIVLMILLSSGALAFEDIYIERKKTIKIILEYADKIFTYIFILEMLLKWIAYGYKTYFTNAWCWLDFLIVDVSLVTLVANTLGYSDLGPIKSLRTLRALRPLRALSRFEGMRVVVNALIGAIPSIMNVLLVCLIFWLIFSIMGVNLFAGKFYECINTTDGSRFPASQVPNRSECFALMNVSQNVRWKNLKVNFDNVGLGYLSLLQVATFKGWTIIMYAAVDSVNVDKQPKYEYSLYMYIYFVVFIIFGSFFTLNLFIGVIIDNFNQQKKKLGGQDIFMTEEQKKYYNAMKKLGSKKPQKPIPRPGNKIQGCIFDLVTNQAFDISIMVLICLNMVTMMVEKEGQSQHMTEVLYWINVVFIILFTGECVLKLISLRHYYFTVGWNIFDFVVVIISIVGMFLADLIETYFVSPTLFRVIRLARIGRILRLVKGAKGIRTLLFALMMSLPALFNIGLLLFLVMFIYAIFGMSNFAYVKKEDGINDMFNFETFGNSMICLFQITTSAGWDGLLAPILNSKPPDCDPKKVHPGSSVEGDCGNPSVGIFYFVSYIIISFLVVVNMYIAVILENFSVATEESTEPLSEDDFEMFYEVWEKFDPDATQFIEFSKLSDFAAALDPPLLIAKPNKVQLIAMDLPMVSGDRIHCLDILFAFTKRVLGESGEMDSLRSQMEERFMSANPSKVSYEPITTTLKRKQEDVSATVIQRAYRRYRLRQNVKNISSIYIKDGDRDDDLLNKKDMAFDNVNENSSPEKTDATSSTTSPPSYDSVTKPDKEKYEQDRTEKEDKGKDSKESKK
row,Structure (SMILES),IC50 [nM]
1,"N#Cc1cc(S(=O)(=O)Nc2ncns2)ccc1Oc1ccc(-c2cccc(C(F)(F)F)c2)cc1-c1ccnnc1 [Example 1, 3-Cyano-4-{[3-pyridazin-4-yl-3′-(trifluoromethyl)biphenyl-4-yl]oxy}-N-1,2,4-thiadiazol-5-ylbenzenesulfonamide]",1.8
2,"O=S(=O)(Nc1ncccn1)c1cc(Cl)c(Oc2ccc(-c3ccc(C(F)(F)F)cc3)cc2-c2ccnnc2)cc1F [Example 2, 5-Chloro-2-fluoro-4-{[3-pyridazin-4-yl-4′-(trifluoromethyl)biphenyl-4-yl]oxy}-N-pyrimidin-2-ylbenzenesulfonamide]",8.1
3,"O=S(=O)(Nc1cccnn1)c1ccc(Oc2ccc(-c3ccc(C(F)(F)F)cc3)cc2-c2ccnnc2)c(Cl)c1 [Example 3, 3-Chloro-N-pyridazin-3-yl-4-{[3-pyridazin-4-yl-4′-(trifluoromethyl)biphenyl-4-yl]oxy}benzenesulfonamide]",31
4,"O=S(=O)(Nc1nncs1)c1cc(Cl)c(Oc2ccc(-c3ccccc3C(F)(F)F)cc2-c2ccnnc2)cc1F [Example 4, 5-Chloro-2-fluoro-4-{[3-pyridazin-4-yl-2′-(trifluoromethyl)biphenyl-4-yl]oxy}-N-1,3,4-thiadiazol-2-ylbenzenesulfonamide]",2.9
5,O=S(=O)(Nc1nncs1)c1cc(Cl)c(Oc2ccc(-c3cccc(C(F)(F)F)c3)cc2-c2ccnnc2)cc1F [Example 5],1.3
6,"O=S(=O)(Nc1nncs1)c1cc(Cl)c(Oc2ccc(-c3ccc(C(F)(F)F)cc3)cc2-c2ccnnc2)cc1F [Example 6, 5-Chloro-2-fluoro-4-{[3-pyridazin-4-yl-4′-(trifluoromethyl)biphenyl-4-yl]oxy}-N-1,3,4-thiadiazol-2-ylbenzenesulfonamide]",2.9
7,"N#Cc1cc(S(=O)(=O)Nc2ncns2)ccc1Oc1ccc(-c2ccc(C(F)(F)F)cc2)cc1-c1ccnnc1 [Example 7, 3-Cyano-4-{[3-pyridazin-4-yl-4′-(trifluoromethyl)biphenyl-4-yl]oxy}-N-1,2,4-thiadiazol-5-ylbenzenesulfonamide]",1.2
8,"Cn1nccc1-c1cc(-c2ccccc2)ccc1Oc1ccc(S(=O)(=O)Nc2nccs2)cc1F [Example 8, 3-Fluoro-4-{[3-(1-methyl-1H-pyrazol-5-yl)biphenyl-4-yl]oxy}-N-1,3-thiazol-2-ylbenzenesulfonamide]",32
9,"O=S(=O)(Nc1nncs1)c1ccc(Oc2ccc(-c3ccccc3)cc2-c2ccnnc2)c(Cl)c1 [Example 9, 3-Chloro-4-[(3-pyridazin-4-ylbiphenyl-4-yl)oxy]-N-1,3,4-thiadiazol-2-ylbenzenesulfonamide]",11.6
10,"N#Cc1cc(S(=O)(=O)Nc2nncs2)ccc1Oc1ccc(-c2ccccc2)cc1-c1ccnnc1 [Example 10, 3-Cyano-4-[(3-Pyridazin-4-ylbiphenyl-4-yl)oxy]-N-1,3,4-thiadiazol-2-ylbenzenesulfonamide]",53
11,"O=S(=O)(Nc1nncs1)c1cc(Cl)c(Oc2ccc(-c3ccccc3)cc2-c2ccnnc2)cc1F [Example 11, 5-Chloro-2-fluoro-4-[(3-pyridazin-4-ylbiphenyl-4-yl)oxy]-N-1,3,4-thiadiazol-2-ylbenzenesulfonamide]",7.7
12,"N#Cc1cc(S(=O)(=O)Nc2ncns2)ccc1Oc1ccc(-c2ccccc2)cc1-c1ccnnc1 [Example 12, 3-Cyano-4-[(3-pyridazin-4-ylbiphenyl-4-yl)oxy]-N-1,2,4-thiadiazol-5-ylbenzenesulfonamide]",1.9
13,"CN1CC(n2nccc2-c2cc(-c3ccccc3C(F)(F)F)ccc2Oc2cc(F)c(S(=O)(=O)Nc3nncs3)cc2Cl)C1 [Example 13, 5-Chloro-2-fluoro-4-({3-[1-(1-methylazetidin-3-yl)-1H-pyrazol-5-yl]-2′-(trifluoromethyl)biphenyl-4-yl}oxy)-N-1,3,4-thiadiazol-2-ylbenzenesulfonamide]",2.2
14,"CN1CC(n2nccc2-c2cc(-c3ccc(C(F)(F)F)cc3)ccc2Oc2cc(F)c(S(=O)(=O)Nc3nncs3)cc2Cl)C1 [Example 14, 5-Chloro-2-fluoro-4-({3-[1-(1-methylazetidin-3-yl)-1H-pyrazol-5-yl]-4′-(trifluoromethyl)biphenyl-4-yl}oxy)-N-1,3,4-thiadiazol-2-ylbenzenesulfonamide]",1.1
15,"Cn1nccc1-c1cc(-c2ccccc2)ccc1Oc1ccc(S(=O)(=O)Nc2ncc(F)s2)cc1C#N [Example 15, 3-Cyano-N-(5-fluoro-1,3-thiazol-2-yl)-4-{[3-(1-methyl-1H-pyrazol-5-yl)biphenyl-4-yl]oxy}benzenesulfonamide]",6
16,"Cn1nccc1-c1cc(-c2ccccc2)ccc1Oc1ccc(S(=O)(=O)Nc2ncns2)cc1C#N [Example 16, 3-Cyano-4-{[3-(1-methyl-1H-pyrazol-5-yl)biphenyl-4-yl]oxy}-N-1,2,4-thiadiazol-5-ylbenzenesulfonamide]",1.5
17,"N#Cc1cc(S(=O)(=O)Nc2ncns2)ccc1Oc1ccc(-c2ccccc2C(F)(F)F)cc1-c1ccnnc1 [Example 17, 3-Cyano-4-{[3-pyridazin-4-yl-2′-(trifluoromethyl)biphenyl-4-yl]oxy}-N-1,2,4-thiadiazol-5-ylbenzenesulfonamide]",2.7
18,"COc1cccc(-c2ccc(Oc3ccc(S(=O)(=O)Nc4nccs4)cc3C#N)c(-c3ccnn3C)c2)c1 [Example 18, 3-Cyano-4-{[3′-methoxy-3-(1-methyl-1H-pyrazol-5-yl)biphenyl-4-yl]oxy}-N-(1,3-thiazol-2-yl)benzenesulfonamide]",18
19,"COc1ccccc1-c1ccc(Oc2ccc(S(=O)(=O)Nc3nccs3)cc2C#N)c(-c2ccnn2C)c1 [Example 19, 3-Cyano-4-{[2′-methoxy-3-(1-methyl-1H-pyrazol-5-yl)biphenyl-4-yl]oxy}-N-(1,3-thiazol-2-yl)benzenesulfonamide]",11
20,"Cn1nccc1-c1cc(-c2ccccc2)ccc1Oc1ccc(S(=O)(=O)Nc2ccc(F)cn2)cc1C#N [Example 20, 3-Cyano-N-(5-fluoropyridin-2-yl)-4-{[3-(1-methyl-1H-pyrazol-5-yl)biphenyl-4-yl]oxy}benzenesulfonamide]",240
21,"Cn1nccc1-c1cc(-c2cccc(CN)c2)ccc1Oc1ccc(S(=O)(=O)Nc2nccs2)cc1C#N [Example 21, 4-{[3′-(Aminomethyl)-3-(1-methyl-1H-pyrazol-5-yl)biphenyl-4-yl]oxy}-3-cyano-N-(1,3-thiazol-2-yl)benzenesulfonamide, hydrochloride salt]",100
22,"Cn1nccc1-c1cc(-c2ccccc2)ccc1Oc1cc(F)c(S(=O)(=O)Nc2ccc(F)cn2)cc1Cl [Example 22, 5-Chloro-2-fluoro-N-(5-fluoropyridin-2-yl)-4-{[3-(1-methyl-1H-pyrazol-5-yl)biphenyl-4-yl]oxy}benzenesulfonamide]",33
23,"CNCc1ccccc1-c1ccc(Oc2ccc(S(=O)(=O)Nc3nccs3)cc2C#N)c(-c2ccnn2C)c1 [Example 23, 3-Cyano-4-({2′-[(methylamino)methyl]-3-(1-methyl-1H-pyrazol-5-yl)biphenyl-4-yl}oxy)-N-(1,3-thiazol-2-yl)benzenesulfonamide, trifluoroacetate salt]",5.1
24,"O=S(=O)(Nc1nncs1)c1cc(Cl)c(Oc2cc(Cl)c(-c3ccc(F)cc3)cc2-c2ccnnc2)cc1F [Example 24, 5-Chloro-4-{[2-chloro-4′-fluoro-5-(pyridazin-4-yl)biphenyl-4-yl]oxy}-2-fluoro-N-(1,3,4-thiadiazol-2-yl)benzenesulfonamide]",1.7
25,"Nc1n[nH]cc1-c1cc(-c2cccc(C(F)(F)F)c2)ccc1Oc1cc(F)c(S(=O)(=O)Nc2nncs2)cc1Cl [Example 25, 4-{[3-(3-Amino-1H-pyrazol-4-yl)-3′-(trifluoromethyl)biphenyl-4-yl]oxy}-5-chloro-2-fluoro-N-(1,3,4-thiadiazol-2-yl)benzenesulfonamide]",0.8
